Results from US4281121A, “1,3,4-Thiadiazole-2-carboxylic acid derivatives, process for making the same and fungicidal and nematocidal compositions containing same” (Schering Aktiengesellschaft, priority 1978, dated 1981).
Where two headings read alike, the source gives them in different places.

Assays:
Fusarium avenaceum = assay: Threshold concentration test in case of Fusarium avenaceum (infested soil, garden peas); assay type: in vivo; details: for number of sound peas: 20 grains per dish, 18 days at 20-24° C.; for root evaluation (1-4): 18 days
Description: Threshold concentration test in case of Fusarium avenaceum
A 20% pulverulent active agent of the type further identified in the table below was mixed in uniform manner with a soil which had been heavily infested with Fusarium avenaceum. The thus treated soil was then placed into clay dishes of a capacity of 0.5 l of earth. Each dish was seeded without any intervening time with 20 grains of garden peas (Pisum sativum L. convar. medullare Alef.) of the type "Wunder von Kelvedon". After a cultivation time of 18 days at 20° to 24° C. in a hot house the number of sound peas was determined and a root evaluation was carried out. The active agents employed, the amounts and results appear from the following table.
(§1) The root evaluation was carried out on a scale from 1 to 4 as follows: […]

Tilletia caries = assay: Treatment of oat seeds infested with Tilletia caries (spore germination); assay type: in vivo
Plasmopara viticola = assay: Prophylactic leaf treatment of grapevines in the hothouse against Plasmopara viticola; assay type: in vivo
Description: Effects of prophylactic leaf treatment of grapevines in the hothouse against Plasmopara viticola
Young grapevine plants having from 5 to 8 leaves were sprayed dripping wet with the concentrations of active agents stated in the table below. After drying of the spray deposit the leaves were sprayed with an aqueous suspension of sporangia of the fungus (about 20,000 per ml); the spraying was applied to the bottom side of the leaves. The plants were then immediately incubated in a hothouse at a temperature of 22° to 24° C. and at maximum water saturation in the atmosphere. Beginning with the second day the humidity of the air was reduced for 3 to 4 days to normal level (30 to 70% saturation) and was then maintained for another day on the level of full saturation. Subsequently, the percentage portion of the fungus infested surface of each leaf was noted and the average per treatment was calculated in order to determine the fungicidal activity. This was done on the basis of the following formula: [formula]
The active compounds were applied in the form of a 20% concentration spray powder.

Pythium ultimum = assay: Threshold concentration test for use of the compounds against Pythium ultimum (infested soil, garden peas); assay type: in vivo; set-up: key to root evaluation (1-4): 4: white roots without fungous necrosis; 3: white roots, minor fungous necrosis; 2: brown roots, already more pronounced fungous necrosis; 1: heavy fungous necrosis, roots rotted; details: for root evaluation (1-4): 3 weeks; for number of sound peas: 20 grains per dish, 3 weeks at 20-24° C.
Description: Threshold concentration test for use of the compounds against Pythium ultimum
A 20% concentration of certain pulverulent active agents as listed below were mixed in uniform manner into a soil which had been heavily infested by Pythium ultimum. The thus treated soil was then placed into clay dishes of a capacity of 0.5 l earth. Without any intermediate time lapse 20 grain of garden peas (Pisum sativum L. convar. medullare Alef.) of the type "Wunder von Kelvedon" were then seeded into each of the clay dishes. After a cultivation period of three weeks at 20° to 24° C. in a hothouse the number of sound peas was determined and a root evaluation was carried out. The active agents amounts and results appear from the following table.
as §1

[1] = system: Helminthosporium gramineum; assay: Seed treatment in open field tests for infestation by Helminthosporium gramineum (barley); assay type: in vivo; details: summer barley, about 3 months
Description: Seed treatment in open field tests for infestation by Helminthosporium gramineum
The active agents were used in the form of pulverulent compositions. After about 8 months in case of winter barley and after about 3 months in case of summer barley the infested plants were counted and the activity was calculated by the formula [formula]

Helminthosporium gram = details: about 5 weeks
Description: Treatment of barley seeds infested with Helminthosporium gram
After emergence, the plants were subjected to illumination for 12 hours per day. After about 5 weeks the infested plants were counted and the total number of plants for each test were also counted. The active agents tested were used as pulverulent compositions.

Piricularia oryzae = assay type: in vivo; details: concentration of active agent 0.1 (percentages); 5 days
[2] = concentration of active agent 0.005 (unit not given)
[3] = concentration of active agent 0.025 (unit not given)
[4] = 50 g active agent/100 kg barley
[5] = concentration of active agent 0.001 (unit not given)
[6] = 25 g active agent/100 kg barley
[7] = 100 g active agent/100 kg barley

SMILES | % activity (Tilletia caries; 20 g active agent per 100 kg) [%] | % activity (Tilletia caries; 50 g active agent per 100 kg) [%] | % activity (Plasmopara viticola; [2]) [%] | % activity (Plasmopara viticola; [3]) [%] | root evaluation (1-4) (Pythium ultimum; 20 mg/l soil) | number of sound peas (Pythium ultimum; 20 mg/l soil) | root evaluation (1-4) (Pythium ultimum; 40 mg/l soil) | number of sound peas (Pythium ultimum; 40 mg/l soil) | root evaluation (1-4) (Pythium ultimum; 80 mg/l soil) | number of sound peas (Pythium ultimum; 80 mg/l soil) | % activity (Tilletia caries; 10 g active agent per 100 kg) [%] | % activity [1, 4] [%] | % activity (Helminthosporium gram; 10 g active agent per 100 kg) [%] | % activity (Helminthosporium gram; 20 g active agent per 100 kg) [%] | % activity (Helminthosporium gram; 50 g active agent per 100 kg) [%] | further results
CCCCS(=O)(=O)c1nnc(C#N)s1 [5-butylsulfonyl-1,3,4-thiadiazole-2-carbonitrile] | 95 | 100 | 91 | 93 | – | – | – | – | – | – | – | – | – | – | – | number of sound peas (Fusarium avenaceum; 25 mg/l soil): 18; root evaluation (1-4) (Fusarium avenaceum; 25 mg/l soil): 4; number of sound peas (Fusarium avenaceum; 50 mg/l soil): 20; root evaluation (1-4) (Fusarium avenaceum; 50 mg/l soil): 4; number of sound peas (Fusarium avenaceum; 100 mg/l soil): 20; root evaluation (1-4) (Fusarium avenaceum; 100 mg/l soil): 4
CCCCS(=O)(=O)c1nnc(C(N)=O)s1 [5-butylsulfonyl-1,3,4-thiadiazole-2-carboxamide] | – | – | 73 | 90 | 1 | 11 | 4 | 20 | 4 | 18 | – | – | – | – | – | number of sound peas (Fusarium avenaceum; 25 mg/l soil): 15; root evaluation (1-4) (Fusarium avenaceum; 25 mg/l soil): 2; number of sound peas (Fusarium avenaceum; 50 mg/l soil): 12; root evaluation (1-4) (Fusarium avenaceum; 50 mg/l soil): 3; number of sound peas (Fusarium avenaceum; 100 mg/l soil): 16; root evaluation (1-4) (Fusarium avenaceum; 100 mg/l soil): 4
CC[S+]([O-])c1nnc(C#N)s1 (stereo not drawn) [5-ethylsulfinyl-1,3,4-thiadiazole-2-carbonitrile] | 100 | 100 | 96 | 100 | 4 | 20 | 4 | 19 | 4 | 19 | 99.8 | 100 | 98 | 100 | 100 | number of sound peas (Fusarium avenaceum; 25 mg/l soil): 19; root evaluation (1-4) (Fusarium avenaceum; 25 mg/l soil): 4; number of sound peas (Fusarium avenaceum; 50 mg/l soil): 20; root evaluation (1-4) (Fusarium avenaceum; 50 mg/l soil): 4; number of sound peas (Fusarium avenaceum; 100 mg/l soil): 20; root evaluation (1-4) (Fusarium avenaceum; 100 mg/l soil): 4; % activity (Plasmopara viticola; [5]): 89%
CCNC(=O)c1nnc(S(=O)(=O)CC)s1 [5-ethylsulfonyl-1,3,4-thiadiazole-2-carboxylic acid ethylamide] | 100 | 100 | – | 98 | 4 | 15 | 4 | 16 | 4 | 16 | 99.3 | 99.5 | – | 100 | 100 | % activity [1, 6]: 98%; % activity [1, 7]: 100%
CCS(=O)(=O)c1nnc(C(=O)N2CCOCC2)s1 [5-ethylsulfonyl-1,3,4-thiadiazole-2-carboxylic acid-(N,N-3-oxapentamethyleneamide] | – | 100 | – | – | – | – | – | – | – | – | – | 99.3 | 99 | 100 | 100 | –
CCCCN(C)C(=O)c1nnc(S(=O)(=O)CC)s1 [5-ethylsulfonyl-1,3,4-thiadiazole-2-carboxylic acid-(N-butyl,N-methyl)-amide] | 100 | 100 | 100 | 100 | – | – | – | – | – | – | 98 | 96.9 | – | 100 | 100 | % activity [1, 6]: 94%; % activity [1, 7]: 99.5%; % activity (Plasmopara viticola; [5]): 100%
CCS(=O)(=O)c1nnc(C(=O)NC2CC2)s1 [5-ethylsulfonyl-1,3,4-thiadiazole-2-carboxylic acid-cyclopropylamide] | 100 | 100 | – | – | – | – | – | – | – | – | 85 | – | – | – | – | % activity ([1]; 200 g active agent/100 kg barley): 100%
COCCNC(=O)c1nnc([S+](C)[O-])s1 (stereo not drawn) [5-methylsulfinyl-1,3,4-thiadiazole-2-carboxylic acid-(2-methoxyethyl)-amide] | – | – | – | 96 | – | – | – | – | – | – | – | – | 75 | 97 | 100 | –
C[S+]([O-])c1nnc(C(=O)N2CCC2)s1 (stereo not drawn) [5-methylsulfinyl-1,3,4-thiadiazole-2-carboxylic acid-N,N-trimethylenamide] | 96 | 100 | 93 | 94 | 2 | 12 | 4 | 16 | 4 | 19 | – | – | – | 95 | 100 | % activity (Plasmopara viticola; [5]): 86%
C=CCNC(=O)c1nnc([S+](C)[O-])s1 (stereo not drawn) [5-methylsulfinyl-1,3,4-thiadiazole-2-carboxylic acid-allylamide] | 100 | 100 | – | 90 | 4 | 20 | 4 | 19 | 4 | 18 | 99.2 | 100 | 94 | 99 | 100 | –
C[S+]([O-])c1nnc(C(=O)NC2CC2)s1 (stereo not drawn) [5-methylsulfinyl-1,3,4-thiadiazole-2-carboxylic acid-cyclopropylamide] | 98 | 100 | 80 | 90 | 1 | 15 | 4 | 20 | 4 | 20 | – | – | 72 | 98 | 99 | –
CS(=O)(=O)c1nnc(C(=O)N2CCC2)s1 [5-methylsulfonyl-1,3,4-thiadiazole-2-carboxylic acid-N,N-trimethylenamide] | 99 | 100 | 84 | 90 | 4 | 19 | 4 | 20 | 4 | 20 | – | – | – | – | – | –
CCC[S+]([O-])c1nnc(C#N)s1 (stereo not drawn) [5-propylsulfinyl-1,3,4-thiadiazole-2-carbonitrile] | 100 | 100 | 100 | 100 | 1 | 9 | 4 | 16 | 4 | 18 | 99 | 99.3 | – | 87 | 99 | number of sound peas (Fusarium avenaceum; 25 mg/l soil): 19; root evaluation (1-4) (Fusarium avenaceum; 25 mg/l soil): 4; number of sound peas (Fusarium avenaceum; 50 mg/l soil): 20; root evaluation (1-4) (Fusarium avenaceum; 50 mg/l soil): 4; number of sound peas (Fusarium avenaceum; 100 mg/l soil): 19; root evaluation (1-4) (Fusarium avenaceum; 100 mg/l soil): 4; % activity (Plasmopara viticola; [5]): 100%
CCCS(=O)(=O)c1nnc(C(=O)OCC)s1 [5-propylsulfonyl-1,3,4-thiadiazole-2-carboxylic acid-ethylester] | – | – | – | – | – | – | – | – | – | – | – | – | – | – | – | % activity (Piricularia oryzae): 93%
CCC(C)S(=O)(=O)c1nnc(C(N)=O)s1 (stereo not drawn) [5-sec.-butylsulfonyl-1,3,4-thiadiazole-2-carboxamide] | – | – | – | – | – | – | – | – | – | – | – | 94 | – | – | 97 | –
